From ChEMBL document CHEMBL2010722, “Structure-activity relationship study of beta-carboline derivatives as haspin kinase inhibitors” (Bioorg Med Chem Lett, 2012)

What was measured:
[1] = biological target: Mitogen-activated protein kinase kinase kinase 1 (Homo sapiens) (UniProt Q13233); assay: Inhibition of MAP3K1 at 10 uM
[2] = biological target: Serine/threonine-protein kinase PAK 3 (Homo sapiens) (UniProt O75914); assay: Inhibition of PAK3 at 10 uM
[3] = biological target: Receptor-type tyrosine-protein kinase FLT3 (Homo sapiens) (UniProt P36888); assay: Inhibition of FLT3 at 10 uM
Receptor-type tyrosine-protein kinase FLT3 (Homo sapiens), sequence (P36888 whole entry): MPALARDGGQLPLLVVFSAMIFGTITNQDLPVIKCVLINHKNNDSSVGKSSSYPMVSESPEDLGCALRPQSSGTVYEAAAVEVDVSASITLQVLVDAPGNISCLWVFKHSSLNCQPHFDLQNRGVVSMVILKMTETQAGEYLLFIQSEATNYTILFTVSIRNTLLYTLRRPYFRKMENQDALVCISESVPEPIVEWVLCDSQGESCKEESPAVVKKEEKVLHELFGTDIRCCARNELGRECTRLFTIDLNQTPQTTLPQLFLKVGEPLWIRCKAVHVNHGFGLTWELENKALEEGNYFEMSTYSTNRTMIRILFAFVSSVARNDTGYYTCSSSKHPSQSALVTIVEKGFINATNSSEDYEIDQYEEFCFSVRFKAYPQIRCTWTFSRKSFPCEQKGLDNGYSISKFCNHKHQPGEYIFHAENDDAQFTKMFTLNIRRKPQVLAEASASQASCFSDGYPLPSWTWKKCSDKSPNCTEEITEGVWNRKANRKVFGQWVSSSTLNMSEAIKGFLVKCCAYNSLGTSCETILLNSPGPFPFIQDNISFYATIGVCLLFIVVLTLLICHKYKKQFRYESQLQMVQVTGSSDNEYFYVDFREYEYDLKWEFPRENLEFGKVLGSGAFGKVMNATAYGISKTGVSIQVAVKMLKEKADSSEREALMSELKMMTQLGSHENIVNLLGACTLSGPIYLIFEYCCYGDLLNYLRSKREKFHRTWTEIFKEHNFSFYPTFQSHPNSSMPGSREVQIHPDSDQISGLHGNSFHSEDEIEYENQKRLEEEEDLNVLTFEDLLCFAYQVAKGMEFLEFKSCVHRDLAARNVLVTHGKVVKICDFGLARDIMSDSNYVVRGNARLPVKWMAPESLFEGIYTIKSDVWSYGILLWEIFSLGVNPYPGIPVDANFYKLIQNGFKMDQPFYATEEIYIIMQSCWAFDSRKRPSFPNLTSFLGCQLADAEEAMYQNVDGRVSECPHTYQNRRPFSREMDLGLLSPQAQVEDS

[4] = biological target: Casein kinase II alpha'/ beta (Homo sapiens) (UniProt P67870+P19784); assay: Inhibition of CK2a2/b at 10 uM; format: protein-complex assay
[5] = biological target: Ephrin type-B receptor 2 (Homo sapiens) (UniProt P29323); assay: Inhibition of EPHB2 at 10 uM
Ephrin type-B receptor 2 (Homo sapiens), sequence (P29323 whole entry): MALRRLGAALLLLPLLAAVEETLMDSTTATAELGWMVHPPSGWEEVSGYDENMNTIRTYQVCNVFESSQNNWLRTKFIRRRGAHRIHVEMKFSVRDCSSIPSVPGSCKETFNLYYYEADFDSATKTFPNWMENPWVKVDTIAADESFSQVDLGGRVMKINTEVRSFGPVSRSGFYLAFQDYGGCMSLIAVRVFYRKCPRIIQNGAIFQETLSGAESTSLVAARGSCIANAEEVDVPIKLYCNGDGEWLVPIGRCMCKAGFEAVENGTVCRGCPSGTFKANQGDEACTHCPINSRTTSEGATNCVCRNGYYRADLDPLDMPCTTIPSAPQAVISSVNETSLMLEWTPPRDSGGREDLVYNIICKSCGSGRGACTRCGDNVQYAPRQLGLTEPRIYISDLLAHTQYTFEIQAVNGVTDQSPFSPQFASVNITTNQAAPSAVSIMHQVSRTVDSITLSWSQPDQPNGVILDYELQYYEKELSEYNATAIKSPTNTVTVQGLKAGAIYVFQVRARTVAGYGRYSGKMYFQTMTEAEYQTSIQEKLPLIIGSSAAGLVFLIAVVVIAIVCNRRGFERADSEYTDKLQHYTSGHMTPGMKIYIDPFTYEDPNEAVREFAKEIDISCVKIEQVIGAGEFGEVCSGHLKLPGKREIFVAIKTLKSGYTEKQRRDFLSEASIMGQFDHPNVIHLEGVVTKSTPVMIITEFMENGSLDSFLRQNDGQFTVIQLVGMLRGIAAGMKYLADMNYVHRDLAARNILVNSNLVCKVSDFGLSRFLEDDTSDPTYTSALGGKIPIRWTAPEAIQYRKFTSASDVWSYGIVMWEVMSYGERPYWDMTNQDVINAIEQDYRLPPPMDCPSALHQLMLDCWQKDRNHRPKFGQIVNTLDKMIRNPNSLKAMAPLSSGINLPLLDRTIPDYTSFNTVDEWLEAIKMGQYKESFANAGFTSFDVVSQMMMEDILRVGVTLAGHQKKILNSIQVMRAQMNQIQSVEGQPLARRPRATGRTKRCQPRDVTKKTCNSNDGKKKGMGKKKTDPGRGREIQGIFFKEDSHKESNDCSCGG

[6] = biological target: Serine/threonine-protein kinase PLK4 (Homo sapiens) (UniProt O00444); assay: Inhibition of PLK4 at 10 uM
[7] = biological target: Serine/threonine-protein kinase N1 (Homo sapiens) (UniProt Q16512); assay: Inhibition of PKN1 at 10 uM
[8] = biological target: Mitogen-activated protein kinase 7 (Homo sapiens) (UniProt Q13164); assay: Inhibition of Erk5 at 10 uM
Mitogen-activated protein kinase 7 (Homo sapiens), sequence (Q13164 2-816 limits assumed): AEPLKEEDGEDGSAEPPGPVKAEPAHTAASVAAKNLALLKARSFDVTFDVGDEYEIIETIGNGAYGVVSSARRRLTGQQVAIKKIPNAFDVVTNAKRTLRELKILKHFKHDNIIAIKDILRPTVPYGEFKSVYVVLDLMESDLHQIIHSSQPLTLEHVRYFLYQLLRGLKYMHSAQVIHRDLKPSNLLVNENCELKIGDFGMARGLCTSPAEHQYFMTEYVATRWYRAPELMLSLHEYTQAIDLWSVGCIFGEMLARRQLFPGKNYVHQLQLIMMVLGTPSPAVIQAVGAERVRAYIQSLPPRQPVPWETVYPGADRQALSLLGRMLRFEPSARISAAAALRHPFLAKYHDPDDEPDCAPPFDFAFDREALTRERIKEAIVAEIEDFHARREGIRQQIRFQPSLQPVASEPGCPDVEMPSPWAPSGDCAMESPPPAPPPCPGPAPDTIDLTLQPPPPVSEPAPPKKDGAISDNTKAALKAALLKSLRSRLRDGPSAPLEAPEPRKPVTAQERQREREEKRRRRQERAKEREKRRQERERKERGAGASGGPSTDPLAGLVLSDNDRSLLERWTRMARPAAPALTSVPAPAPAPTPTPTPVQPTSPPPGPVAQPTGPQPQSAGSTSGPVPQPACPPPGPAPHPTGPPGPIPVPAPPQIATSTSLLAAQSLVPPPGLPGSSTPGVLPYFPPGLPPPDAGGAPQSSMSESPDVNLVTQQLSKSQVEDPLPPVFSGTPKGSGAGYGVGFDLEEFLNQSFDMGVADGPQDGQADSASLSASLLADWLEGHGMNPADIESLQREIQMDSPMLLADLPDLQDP

[9] = biological target: Casein kinase I isoform delta (Homo sapiens) (UniProt P48730); assay: Inhibition of CK1d at 10 uM
[10] = biological target: Protein kinase C delta type (Homo sapiens) (UniProt Q05655); assay: Inhibition of PKCdelta at 10 uM
[11] = biological target: Homeodomain-interacting protein kinase 3 (Homo sapiens) (UniProt Q9H422); assay: Inhibition of HIPK3 at 10 uM
[12] = biological target: cAMP-dependent protein kinase catalytic subunit alpha (Homo sapiens) (UniProt P17612); assay: Inhibition of PKACa at 10 uM
[13] = biological target: Death-associated protein kinase 1 (Homo sapiens) (UniProt P53355); assay: Inhibition of DAPK1 at 10 uM
[14] = biological target: Serine/threonine-protein kinase D1 (Homo sapiens) (UniProt Q15139); assay: Inhibition of PKD1 at 10 uM
[15] = biological target: Protein kinase C zeta type (Homo sapiens) (UniProt Q05513); assay: Inhibition of PKCzeta at 10 uM
[16] = biological target: Macrophage colony-stimulating factor 1 receptor (Homo sapiens) (UniProt P07333); assay: Inhibition of FMS at 10 uM
[17] = biological target: Calcium/calmodulin-dependent protein kinase type II subunit delta (Homo sapiens) (UniProt Q13557); assay: Inhibition of CaMK2d at 10 uM
[18] = biological target: RAC-alpha serine/threonine-protein kinase (Homo sapiens) (UniProt P31749); assay: Inhibition of AKT1 at 10 uM
[19] = Inhibition of p70S6K at 10 uM
[20] = Inhibition of SRM at 10 uM
[21] = system: ALK tyrosine kinase receptor (Homo sapiens), Q9UM73 [R1275Q]; assay: Inhibition of ALK R1275Q mutant at 10 uM
[22] = biological target: Casein kinase I isoform gamma-1 (Homo sapiens) (UniProt Q9HCP0); assay: Inhibition of CK1g1 at 10 uM
Casein kinase I isoform gamma-1 (Homo sapiens), sequence (Q9HCP0 whole entry, looked up, canonical isoform): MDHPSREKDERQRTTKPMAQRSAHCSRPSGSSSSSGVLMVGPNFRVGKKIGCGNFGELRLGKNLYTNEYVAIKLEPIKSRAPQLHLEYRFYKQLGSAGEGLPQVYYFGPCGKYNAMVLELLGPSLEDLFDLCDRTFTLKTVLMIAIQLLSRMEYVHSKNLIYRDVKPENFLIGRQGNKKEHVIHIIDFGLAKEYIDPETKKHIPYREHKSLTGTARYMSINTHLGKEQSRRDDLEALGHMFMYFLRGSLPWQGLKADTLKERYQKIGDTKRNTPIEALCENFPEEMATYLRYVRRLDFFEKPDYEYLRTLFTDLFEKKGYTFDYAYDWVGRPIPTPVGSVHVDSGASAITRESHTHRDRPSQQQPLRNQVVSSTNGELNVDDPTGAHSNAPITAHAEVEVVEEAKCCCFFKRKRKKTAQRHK

[23] = biological target: AMP-activated protein kinase (AMPK) alpha-1/beta-1/gamma-1 (Homo sapiens) (UniProt P54619+Q9Y478+Q13131); assay: Inhibition of AMPKalpha1/beta1/gamma1 at 10 uM; format: protein-complex assay
[24] = biological target: Aurora kinase A (Homo sapiens) (UniProt O14965); assay: Inhibition of AurA at 10 uM
[25] = biological target: Tyrosine-protein kinase ITK/TSK (Homo sapiens) (UniProt Q08881); assay: Inhibition of ITK at 10 uM
[26] = biological target: Ephrin type-B receptor 1 (Homo sapiens) (UniProt P54762); assay: Inhibition of EPHB1 at 10 uM
[27] = biological target: Homeodomain-interacting protein kinase 1 (Homo sapiens) (UniProt Q86Z02); assay: Inhibition of HIPK1 at 10 uM
[28] = system: ALK tyrosine kinase receptor (Homo sapiens), Q9UM73 [F1174L]; assay: Inhibition of ALK F1174L mutant at 10 uM
[29] = biological target: Mitogen-activated protein kinase kinase kinase kinase 2 (Homo sapiens) (UniProt Q12851); assay: Inhibition of MAP4K2 at 10 uM
[30] = biological target: Dual specificity tyrosine-phosphorylation-regulated kinase 1B (Homo sapiens) (UniProt Q9Y463); assay: Inhibition of DYRK1B at 10 uM
[31] = biological target: Interferon-induced, double-stranded RNA-activated protein kinase (Homo sapiens) (UniProt P19525); assay: Inhibition of PKR at 10 uM
[32] = biological target: Serine/threonine-protein kinase WNK1 (Homo sapiens) (UniProt Q9H4A3); assay: Inhibition of WNK1 at 10 uM
[33] = biological target: Aurora kinase A/Targeting protein for Xklp2 (Homo sapiens) (UniProt O14965+Q9ULW0); assay: Inhibition of AurA-TPX2 at 10 uM; format: protein-complex assay
[34] = biological target: Fibroblast growth factor receptor 3 (Homo sapiens) (UniProt P22607); assay: Inhibition of FGFR3 at 10 uM
[35] = biological target: Calcium/calmodulin-dependent protein kinase type II subunit beta (Homo sapiens) (UniProt Q13554); assay: Inhibition of CaMK2b at 10 uM
[36] = biological target: Mitogen-activated protein kinase kinase kinase 2 (Homo sapiens) (UniProt Q9Y2U5); assay: Inhibition of MAP3K2 at 10 uM
[37] = biological target: Mitogen-activated protein kinase 13 (Homo sapiens) (UniProt O15264); assay: Inhibition of p38delta at 10 uM
[38] = system: Tyrosine-protein kinase ABL1 (Homo sapiens), P00519 [E255K]; assay: Inhibition of ABL E255K mutant at 10 uM
[39] = biological target: Serine/threonine-protein kinase PLK2 (Homo sapiens) (UniProt Q9NYY3); assay: Inhibition of PLK2 at 10 uM
[40] = biological target: Eukaryotic translation initiation factor 2-alpha kinase 3 (Homo sapiens) (UniProt Q9NZJ5); assay: Inhibition of PEK at 10 uM
[41] = biological target: Dual specificity protein kinase CLK1 (Homo sapiens) (UniProt P49759); settings: 10 uM
[42] = biological target: Serine/threonine-protein kinase Chk1 (Homo sapiens) (UniProt O14757); assay: Inhibition of CHK1 at 10 uM
[43] = biological target: SRSF protein kinase 3 (Homo sapiens) (UniProt Q9UPE1); assay: Inhibition of MSSK1 (SRPK3) at 10 uM
[44] = biological target: Casein kinase I isoform gamma-3 (Homo sapiens) (UniProt Q9Y6M4); assay: Inhibition of CK1g3 at 10 uM
Casein kinase I isoform gamma-3 (Homo sapiens), sequence (Q9Y6M4 whole entry, looked up, canonical isoform): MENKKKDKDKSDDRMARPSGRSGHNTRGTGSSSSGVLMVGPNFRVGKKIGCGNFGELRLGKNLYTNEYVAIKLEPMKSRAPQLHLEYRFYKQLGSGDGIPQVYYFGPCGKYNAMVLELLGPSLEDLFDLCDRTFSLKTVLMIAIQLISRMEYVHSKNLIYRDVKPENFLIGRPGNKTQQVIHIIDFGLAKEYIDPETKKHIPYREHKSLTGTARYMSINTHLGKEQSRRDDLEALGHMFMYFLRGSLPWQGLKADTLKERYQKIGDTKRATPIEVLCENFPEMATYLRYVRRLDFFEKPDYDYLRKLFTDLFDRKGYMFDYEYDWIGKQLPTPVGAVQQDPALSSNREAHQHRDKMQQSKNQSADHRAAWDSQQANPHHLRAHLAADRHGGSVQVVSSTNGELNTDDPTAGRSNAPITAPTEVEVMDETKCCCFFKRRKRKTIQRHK

[45] = biological target: Vascular endothelial growth factor receptor 2 (Homo sapiens) (UniProt P35968); assay: Inhibition of KDR at 10 uM
[46] = biological target: PAS domain-containing serine/threonine-protein kinase (Homo sapiens) (UniProt Q96RG2); assay: Inhibition of PASK at 10 uM
PAS domain-containing serine/threonine-protein kinase (Homo sapiens), sequence (Q96RG2 whole entry, the tested form may be a part): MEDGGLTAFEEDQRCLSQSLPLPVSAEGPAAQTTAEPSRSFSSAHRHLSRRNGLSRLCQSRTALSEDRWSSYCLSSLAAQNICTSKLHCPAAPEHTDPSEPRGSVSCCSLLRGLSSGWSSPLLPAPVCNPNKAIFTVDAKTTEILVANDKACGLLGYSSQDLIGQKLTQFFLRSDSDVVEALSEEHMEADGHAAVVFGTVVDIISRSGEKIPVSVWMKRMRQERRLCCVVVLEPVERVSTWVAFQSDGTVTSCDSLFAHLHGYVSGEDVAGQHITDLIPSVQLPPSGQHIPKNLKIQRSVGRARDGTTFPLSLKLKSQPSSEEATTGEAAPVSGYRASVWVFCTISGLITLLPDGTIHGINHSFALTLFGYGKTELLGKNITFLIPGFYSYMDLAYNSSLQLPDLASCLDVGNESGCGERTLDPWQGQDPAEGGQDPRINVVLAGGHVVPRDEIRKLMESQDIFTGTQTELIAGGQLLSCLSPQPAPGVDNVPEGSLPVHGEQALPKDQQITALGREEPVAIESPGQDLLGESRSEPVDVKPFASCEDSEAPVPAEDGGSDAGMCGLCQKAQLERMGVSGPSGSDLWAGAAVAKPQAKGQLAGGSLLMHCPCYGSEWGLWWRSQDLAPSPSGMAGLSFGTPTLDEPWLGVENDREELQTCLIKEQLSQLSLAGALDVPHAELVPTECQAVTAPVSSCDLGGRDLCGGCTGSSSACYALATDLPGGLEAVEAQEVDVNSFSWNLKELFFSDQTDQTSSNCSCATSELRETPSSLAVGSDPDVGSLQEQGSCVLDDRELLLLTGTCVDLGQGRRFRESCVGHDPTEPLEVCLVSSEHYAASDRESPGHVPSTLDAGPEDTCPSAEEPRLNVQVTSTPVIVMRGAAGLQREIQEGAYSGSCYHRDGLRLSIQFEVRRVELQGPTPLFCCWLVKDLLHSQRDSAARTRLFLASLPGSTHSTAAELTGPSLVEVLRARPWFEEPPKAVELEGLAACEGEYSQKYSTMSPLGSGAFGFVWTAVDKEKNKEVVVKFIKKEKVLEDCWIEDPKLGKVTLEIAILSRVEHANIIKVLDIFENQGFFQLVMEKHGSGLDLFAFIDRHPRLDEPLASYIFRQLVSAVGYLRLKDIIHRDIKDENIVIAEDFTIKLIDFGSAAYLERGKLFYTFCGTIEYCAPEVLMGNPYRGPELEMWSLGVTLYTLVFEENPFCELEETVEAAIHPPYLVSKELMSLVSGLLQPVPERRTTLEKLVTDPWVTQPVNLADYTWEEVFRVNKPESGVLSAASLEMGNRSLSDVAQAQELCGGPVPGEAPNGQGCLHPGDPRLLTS

[47] = biological target: Proto-oncogene tyrosine-protein kinase ROS (Homo sapiens) (UniProt P08922); assay: Inhibition of ROS at 10 uM

For `COc1ccc2c3ccnc(C(F)(F)F)c3n(CCCCN)c2c1`, the inhibition [1] was 0%, the inhibition [2] was 27% and the inhibition [3] was 74%. For the same compound, the inhibition [4] was 1%, the inhibition [5] was 0% and the inhibition [6] was 22%. It also gave an inhibition [7] of 52%, an inhibition [8] of 21% and an inhibition [9] of 93%. It also gave an inhibition [10] of 68%, an inhibition [11] of 49% and an inhibition [12] of 28%. The inhibition [13] was 41%, the inhibition [14] was 85% and the inhibition [15] was 35%. The inhibition [16] was 6%, the inhibition [17] was 91% and the inhibition [18] was 23%. For the same compound, the inhibition [19] was 76%, the inhibition [20] was 0% and the inhibition [21] was 6%. It also gave an inhibition [22] of 66%, an inhibition [23] of 16% and an inhibition [24] of 0%. For the same compound, the inhibition [25] was 7%, the inhibition [26] was 0% and the inhibition [27] was 41%. For the same compound, the inhibition [28] was 9%, the inhibition [29] was 75% and the inhibition [30] was 98%. The inhibition [31] was 6%, the inhibition [32] was 5% and the inhibition [33] was 0%. For the same compound, the inhibition [34] was 1%, the inhibition [35] was 91% and the inhibition [36] was 13%. It also gave an inhibition [37] of 25%, an inhibition [38] of 0% and an inhibition [39] of 15%. The inhibition [40] was 0%, the inhibition [41] was 100% and the inhibition [42] was 25%. It also gave an inhibition [43] of 7%, an inhibition [44] of 53% and an inhibition [45] of 2%. For the same compound, the inhibition [46] was 92% and the inhibition [47] was 44%.
